What was measured:
overweight human subject [1] = experiment: Example 4: XENICAL regimen with separate magnesium stearate wafer in an overweight human subject; assay type: in vivo
Experimental: XENICAL® is prescribed to an overweight human subject at a therapeutic dose of 120 mg orlistat taken with each of three daily meals. This dose causes a reduction in the absorption of dietary fat such that total caloric intake by the subject is reduced by approximately 10%, relative to the subjects normal dietary energy intake. […] In particular, magnesium stearate is provided at an amount of 1 gram incorporated into a wafer that is consumed with each meal, resulting in a total consumption of 3 grams per day of magnesium stearate. […] The efficacy of the XENICAL® is unaffected by the addition of magnesium stearate to the diet.

[2] = test system: male, Sprague-Dawley rats; experiment: Fur appearance score: separation of excreted dietary oil from fecal matter in rats fed food compositions; assay type: in vivo, rat; settings: food with 0.04% orlistat, no calcium stearate, ad libitum 11 days, assessed days 7 and 11; scale 1 (no oil visible on fur) to 5 (>90% of fur oiled)
Excerpt: Groups of male, Sprague-Dawley rats (commercially available from Harlan Labs, Indianapolis, Ind.), were presented with a composition, which was a food composition, containing either 0.04% orlistat, by weight of the composition, or the combination of 0.04% orlistat and 1%, 0.5%, or 0.25% calcium stearate, all by weight of the composition. The fat content of each composition provided 30% of the consumed energy of the rat. Another group of rats (also male, Sprague Dawley, commercially available from Harlan Labs, Indianapolis, Ind.) were presented with the same food compositions, except devoid of orlistat and calcium stearate (“control compositions”). All rats consumed their respective compositions ad libitum for 11 days.
On the seventh and eleventh days of these dietary regimens, the appearance of each rat was viewed by assessors not aware of the identity of composition consumed by the rats. Separation of oil from the other fecal matter of each rat was determined by the use of a scale that quantified the fraction of the rat's fur that was coated with excreted dietary oil. […] Intermediate scores of “2,” “3,” and “4” indicated partial covering of the rat's fur, with “2” corresponding to approximately 10% coverage or less, “3” corresponding to approximately greater than 10% to approximately 50% coverage, and “4” corresponding to approximately greater than 50% to approximately 90% coverage.

overweight human subject [3] = experiment: Example 5: XENICAL regimen changed to XENICAL plus behenic acid capsules in an overweight human subject; assay type: in vivo; settings: behenic acid 1.2 g capsule with XENICAL (120 mg orlistat) at each meal
Experimental: An overweight human subject is given a therapeutic dose of XENICAL@ (360 mg orlistat per day/three doses of 120 mg orlistat with each meal) to assist in the reduction of body weight.
When these symptoms are first observed, the regimen is modified to a combination of XENICAL® and behenic acid. At each meal, the subject consumes two capsules. The first capsule is XENICAL® (120 mg orlistat) while the second capsule contains the behenic acid (1.2 g). These capsules are co-packaged in a kit for the convenience of the subject.

## magnesium stearate
Overweight human subject [1]; 1 gram magnesium stearate in a wafer with each meal (3 grams per day), together with XENICAL
  effect on gastrointestinal discomfort and anal leakage of unabsorbed oil: prevents the gastrointestinal discomfort and anal leakage of unabsorbed oil
Overweight human subject [1]; 3 grams per day magnesium stearate with XENICAL 120 mg orlistat per meal
  efficacy of XENICAL on addition of magnesium stearate to the diet: unaffected

## CCCCCCCCCCCC(CC1OC(=O)C1CCCCCC)OC(=O)C(CC(C)C)NC=O (stereo not shown) [orlistat, tetrahydrolipstatin]
[2]
  mean fur appearance score: 2.4

## CCCCCCCCCCCCCCCCCCCCCC(=O)O [behenic acid]
Overweight human subject [3]
  state of the excreted fat: stiffened

Reference: patent publication US8372430B2, “Compositions, methods, and kits useful for the alleviation of gastrointestinal effects” (priority 2002, dated 2013)
